Earlier results on one molecule are cited in patent publication US7610153B2, “Multi-drug titration and evaluation” (Virginia Commonwealth University, priority 2002, dated 2009).

Molecules are shown by their SMILES.

The conditions of this data set: literature.

Take `CN(C)C(=N)N=C(N)N` [metformin]: the hypoglycemia result was “does not cause hypoglycemia”. The “decrease in fasting and postprandial glycemia” value (type 2 diabetes) is 60 to 70 mg/dL.
